Measurements reported in patent publication US8765771B2, “Condensed pyridine or condensed pyrimidine derivative, and medicinal agent comprising same” (Kowa Co., Ltd., priority 2010, dated 2014).

Tested on: Hamster pancreatic β cell strain HIT-T15 cells
Assay: Action of promoting insulin secretion (Test Example 1)
Assay type: cell-based
Conditions: Mesocricetus auratus, glucose 2 mM, 1 hour at 37° C., insulin in the supernatant, 0.0001 μM to 10 μM, read-out: EC50 (50% effect concentration, insulin secretion)
Method: Action of Promoting Insulin Secretion
Hamster pancreatic β cell strain HIT-T15 cells were subcultured by using a Ham's F-12K culture medium containing penicillin (100 unit/mL), streptomycin (100 μg/mL) and 10% fetal bovine serum. The cells were sown on a 24-well cell culture plate, cultured at 37° C. for 48 hours, and washed with a 0.10 albumin KRBH buffer. Subsequently, the cells were allowed to stand in the same buffer at 37° C. for 1 hour. Glucose was added thereto so as to give a final concentration of 2 mM, and the compound of the present invention that had been dissolved in dimethylsulfoxide at a concentration of 1.000-fold of the respective concentrations (from 0.0001 μM to 10 μM at a common ratio of 10) was further added under a condition that the compound was included in an amount of 0.1 volume % in the buffer. After the addition of the compound of the present invention, the cells were allowed to stand at 37° C. for 1 hour, and the concentration of the insulin included in the supernatant was measured by an insulin kit (SCETI Medical Labo K. K.). A hamster insulin standard solution (SHIBAYAGI Co., Ltd.) was used as a standard solution. A control to which only dimethylsulfoxide had been added was used. The results are shown in Table 8 as the 50% effect concentrations (EC50 values, 50% effect concentrations)) of the respective subject compounds. The EC50 values were calculated by using a statistical analysis program, SAS Pre-Clinical Package Ver 5.0 (SAS institute Japan Co., Tokyo).

SMILES	EC50
CC(C)(OC(=O)N1CCC(c2coc3c(Nc4ccc(S(C)(=O)=O)cc4F)ncnc23)CC1)C(F)(F)F [Example 33, 1,1,1-trifluoro-2-methylpropan-2-yl 4-(4-{[2-fluoro-4-(methylsulfonyl)phenyl]amino}furo[3,2-d]pyrimidin-7-yl)piperidine-1-carboxylate]	15.1 nM
CS(=O)(=O)c1ccc(Nc2ncnc3c(C4CCN(C(=O)Oc5ccccc5)CC4)coc23)c(F)c1 [Example 37, phenyl 4-(4-{[2-fluoro-4-(methylsulfonyl)phenyl]amino}furo[3,2-d]pyrimidin-7-yl)piperidine-1-carboxylate]	56.2 nM
CC(C)(C)COC(=O)N1CCC(c2coc3c(Nc4ccc(S(C)(=O)=O)cc4F)ncnc23)CC1 [Example 35, neopentyl 4-(4-{[2-fluoro-4-(methylsulfonyl)phenyl]amino}furo[3,2-d]pyrimidin-7-yl)piperidine-1-carboxylate]	58.4 nM
CC(C)(C)OC(=O)N1CCC(c2coc3c(Oc4ccc(S(C)(=O)=O)cc4)ncnc23)CC1 [Example 40, tert-butyl 4-(4-{4-(methylsulfonyl)phenoxy}furo[3,2-d]pyrimidin-7-yl)piperidine-1-carboxylate]	10.7 nM
CC(C)(C)OC(=O)N1CCC(c2coc3c(Oc4ccc(S(C)(=O)=O)c(F)c4)ncnc23)CC1 [Example 21, tert-butyl 4-{4-[3-fluoro-4-(methylsulfonyl)phenoxy]furo[3,2,d]pyrimidin-7-yl}piperidine-1-carboxylate]	51.9 nM
CC(C)(C)OC(=O)N1CCC(c2coc3c(Oc4ccc(-n5cnnn5)cc4)ncnc23)CC1 [Example 41, tert-butyl 4-{4-[4-(1H-tetrazol-1-yl)phenoxy]furo[3,2-d]pyrimidin-7-yl}piperidine-1-carboxylate]	42.9 nM
CS(=O)(=O)c1ccc(Nc2ncnc3c(C4CCN(C(=O)OCc5ccccc5)CC4)coc23)c(F)c1 [Example 7, benzyl 4-(4-{[2-fluoro-4-(methylsulfonyl)phenyl]amino}furo[3,2-d]pyrimidin-7-yl)piperidine-1-carboxylate]	33.7 nM
CC(C)(C)OC(=O)N1CCC(c2coc3c(Nc4ccc(S(C)(=O)=O)cc4F)ncnc23)CC1 [Example 1, Tert-Butyl 4-(4-{[2-fluoro-4-(methylsulfonyl)phenyl]amino}furo[3,2-d]pyrimidin-7-yl)piperidine-1-carboxylate]	5.3 nM
CS(=O)(=O)c1ccc(Nc2ncnc3c(C4CCN(S(=O)(=O)C5CCCCC5)CC4)coc23)c(F)c1 [Example 12, 7-[1-(cyclohexylsulfonyl)piperidin-4-yl]-N-[2-fluoro-4-(methylsulfonyl)phenyl]furo[3,2-d]pyrimidine-4-amine]	9.1 nM
CC(C)(C)OC(=O)N1CCC(c2csc3c(Nc4ccc(S(C)(=O)=O)cc4F)ncnc23)CC1 [Example 27, tert-butyl 4-(4-{[2-fluoro-4-(methylsulfonyl)phenyl]amino}thieno[3,2-d]pyrimidin-7-yl)piperidine-1-carboxylate]	50.7 nM
CS(=O)(=O)c1ccc(Nc2ncnc3c(C4CCN(C(=O)OCC(Cl)(Cl)Cl)CC4)coc23)c(F)c1 [Example 36, 2,2,2-trichloroethyl 4-(4-{[2-fluoro-4-(methylsulfonyl)phenyl]amino}furo[3,2-d]pyrimidin-7-yl)piperidine-1-carboxylate]	18.7 nM
CC(C)(C)OC(=O)N1CCC(c2coc3c(N4CCc5cc(S(C)(=O)=O)ccc54)ncnc23)CC1 [Example 24, tert-butyl 4-{4-[5-(methylsulfonyl)indolin-1-yl]furo[3,2-d]pyrimidin-7-yl}piperidine-1-carboxylate]	3.6 nM

Continued, values first:

EC50	SMILES
4.5 nM	CS(=O)(=O)c1ccc(Nc2ncnc3c(C4CCN(c5ncc(C(F)(F)F)cn5)CC4)coc23)c(F)c1 [Example 31, N-[2-fluoro-4-(methylsulfonyl)phenyl]-7-{1-[5-(trifluoromethyl)pyrimidin-2-yl]piperidin-4-yl}furo[3,2-d]pyrimidine-4-amine]
20.5 nM	CS(=O)(=O)c1ccc(Nc2ncnc3c(C4CCN(c5ccc(C(F)(F)F)cn5)CC4)coc23)c(F)c1 [Example 6, N-[2-fluoro-4-(methylsulfonyl)phenyl]-7-{1-[5-(trifluoromethyl)pyridin-2-yl]piperidin-4-yl}furo[3,2-d]pyrimidine-4-amine]
4 nM	CS(=O)(=O)c1ccc(Nc2ncnc3c(C4CCN(c5ncc(Cl)cn5)CC4)coc23)c(F)c1 [Example 2, 7-[1-(5-chloropyrimidin-2-yl)piperidin-4-yl]-N-[2-fluoro-4-(methylsulfonyl)phenyl]furo[3,2-d]pyrimidine-4-amine]
76.9 nM	CS(=O)(=O)c1ccc(Nc2ncnc3c(C4CCN(S(=O)(=O)C5CC5)CC4)coc23)c(F)c1 [Example 11, 7-[1-(cyclopropylsulfonyl)piperidin-4-yl]-N-[2-fluoro-4-(methylsulfonyl)phenyl]furo[3,2-d]pyrimidine-4-amine]
16.4 nM	CCc1cnc(N2CCC(c3coc4c(N5CCc6cc(S(C)(=O)=O)ccc65)ncnc34)CC2)nc1 [Example 25, 7-[1-(5-ethylpyrimidin-2-yl)piperidin-4-yl]-4-[5-(methylsulfonyl)indolin-1-yl]furo[3,2-d]pyrimidine]
14.3 nM	CCc1cnc(N2CCC(c3coc4c(Nc5ccc(S(C)(=O)=O)cc5F)ncnc34)CC2)nc1 [Example 3, 7-[1-(5-ethylpyrimidin-2-yl)piperidin-4-yl]-N-[2-fluoro-4-(methylsulfonyl)phenyl]furo[3,2-d]pyrimidine-4-amine]
83.5 nM	CC(C)OC(=O)N1CCC(c2coc3c(Nc4ccc(S(C)(=O)=O)cc4F)ncnc23)CC1 [Example 8, isopropyl 4-(4-{[2-fluoro-4-(methylsulfonyl)phenyl]amino}furo[3,2-d]pyrimidin-7-yl)piperidine-1-carboxylate]
12.4 nM	CS(=O)(=O)c1ccc(Nc2ncnc3c(C4CCN(c5ncc(Br)cn5)CC4)coc23)c(F)c1 [Example 5, 7-[1-(5-bromopyrimidin-2-yl)piperidin-4-yl]-N-[2-fluoro-4-(methylsulfonyl)phenyl]furo[3,2-d]pyrimidine-4-amine]
33.1 nM	CS(=O)(=O)c1ccc(Nc2ncnc3c(C4CCN(c5ncc(F)cn5)CC4)coc23)c(F)c1 [Example 4, N-[2-fluoro-4-(methylsulfonyl)phenyl]-7-[1-(5-fluoropyrimidin-2-yl)piperidin-4-yl]furo[3,2-d]pyrimidine-4-amine]
